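Where inhibition never reached the appropriate level, the endpoint shown equals the highest concentration tested. Otherwise, values were interpolated linearly from a five-concentration, 48-hour dose response in 96-well plates. Abbreviation: GI50, concentration required for 50% inhibition of growth.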 Activity calls are given as the source filed them. Rule as the data show it: active = GI50 up to about 1.1 µM and inactive = higher.
What was measured:
Test in all cases: NCI anticancer screen, dose series, 48 h
786-0 = test system: 786-0
IGROV-1 = test system: IGROV-1
SF-268 = test system: SF-268
HT-29 = test system: HT-29
CCRF-CEM = test system: CCRF-CEM
SF-539 = test system: SF-539
ACHN = test system: ACHN
NCI-H226 = test system: NCI-H226
UACC-257 = test system: UACC-257
T47D = test system: T47D
NCI-H23 = test system: NCI-H23
MDA-N = test system: MDA-N
MDA-MB-231 = test system: MDA-MB-231
HL-60 = test system: HL-60
UO-31 = test system: UO-31
SK-MEL-28 = test system: SK-MEL-28
DU-145 = test system: DU-145
EKVX = test system: EKVX
OVCAR-8 = test system: OVCAR-8
NCI-H522 = test system: NCI-H522

Measured: GI50

Oc1ccc(CCNCc2cc3c(cc2Br)OCO3)cc1
inactive: 786-0 71 µM | IGROV-1 > 100 µM | SF-268 > 100 µM | HT-29 52.8 µM | CCRF-CEM 73.8 µM | SF-539 4.17 µM | ACHN 95.5 µM | NCI-H226 32.5 µM | UACC-257 50.2 µM | T47D 41.4 µM | NCI-H23 > 100 µM | MDA-N 68.2 µM | MDA-MB-231 55.3 µM | HL-60 28.1 µM | UO-31 55.7 µM | SK-MEL-28 37.2 µM | DU-145 > 100 µM | EKVX > 100 µM | OVCAR-8 > 100 µM | NCI-H522 39.4 µM

O=C(c1ccccc1)c1ccc2nc3n(c2c1)C(c1c(Cl)cccc1Cl)SC3 (stereo not given)
inactive: 786-0 3.86 µM | IGROV-1 4.48 µM | SF-268 4.79 µM | HT-29 6.31 µM | CCRF-CEM 1.27 µM | SF-539 5.68 µM | ACHN 7.69 µM | NCI-H226 31.2 µM | UACC-257 13.6 µM | T47D 3.08 µM | NCI-H23 5.66 µM | MDA-N 1.63 µM | MDA-MB-231 18.4 µM | HL-60 2.36 µM | UO-31 3.17 µM | SK-MEL-28 10.4 µM | DU-145 13.5 µM | EKVX 4.63 µM | OVCAR-8 6.65 µM | NCI-H522 1.74 µM

COC(=O)c1ccc(C)cc1CC1Cc2c(C)cccc2C1=O (stereo not given)
inactive: 786-0 12.8 µM | IGROV-1 5.62 µM | SF-268 9.89 µM | HT-29 3.04 µM | CCRF-CEM 7.05 µM | SF-539 8.17 µM | ACHN 22.2 µM | NCI-H226 13.7 µM | UACC-257 10.4 µM | T47D 7.93 µM | NCI-H23 12.4 µM | MDA-N 1.87 µM | MDA-MB-231 2.32 µM | HL-60 4.54 µM | UO-31 15.9 µM | SK-MEL-28 15.2 µM | DU-145 29.4 µM | EKVX 18 µM | OVCAR-8 14.3 µM | NCI-H522 4.46 µM

From ChEMBL document CHEMBL1201862, “PubChem BioAssay data set” (2004)
